Test results as given in patent US12729405B2, “Method and kit for determining benefit of chemotherapy” (St. Jude Children's Research Hospital, Inc., priority 2019, dated 2026).
Like-named read-outs stand apart in the source and are kept apart here.

Tests used:
primary human ALL cells = test: cells; details: for response of dasatinib-resistant T-ALL: dasatinib-resistant T-ALL cases, as well as cell lines; for response of dasatinib-sensitive primary T-ALL cases to other ABL inhibitors: subset of primary T-ALL samples (N=18)
Procedure: Ex vivo Leukemia Drug Sensitivity Assay. Drug response of primary human ALL cells was evaluated using a co-culture system and flow cytometry assays. hTERT-immortalized mesenchymal stem cells ([…] Wang, et al. (2019) Nat. Commun. 10:3718) were first seeded in a 96-well plate format at a density of 10,000 cells per well in 100 μL of complete medium (RPMI-1640, L-glutamine, 10% fetal bovine serum and 1 μM Hydrocortisone). After 24 hours, leukemia cells were added at 160,000 cells per well to the stromal cell layer in 80 μL AIM-V medium along with 20 μL of drug solution prepared in the same medium. […] After 96 hours incubation at 37° C. with 5% CO2, cells were harvested and stained with CD19 or CD7 to identify leukemia blasts (for B-ALL and T-ALL, respectively). The total number of live leukemia cells were evaluated by using flow cytometry after Annexin V and DAPI staining. Drug-induced death was estimated by comparing to leukemia cells treated with the vehicle alone. The drug concentration that killed 50% of the leukemia cells (LC50 value) was determined using a dose-response model and as a measurement of drug sensitivity. Quality control was performed to remove cases with low viability (less than 1000 viable blast cells in each well in the absence of drugs on day 4).

[1] = dasatinib dosing for CML, oral twice a day; cited from earlier work

COc1ccc(N(C(=O)Oc2c(C)cccc2C)c2ccnc(Nc3ccc(N4CCN(C)CC4)cc3)n2)c(OC)c1 [WH 4-023]
cytotoxicity in dasatinib-sensitive cases (primary human ALL cells): potent cytotoxicity | response of dasatinib-resistant T-ALL (primary human ALL cells): largely did not respond

Cc1nc(Nc2ncc(C(=O)Nc3c(C)cccc3Cl)s2)cc(N2CCN(CCO)CC2)n1 [dasatinib]
T-ALL cases classified as dasatinib-sensitive (primary human ALL cells; 45 T-ALL cases, cutoff LC50 80 nM, 15 cases): 33.3% | CC50 (primary human ALL cells; Homo sapiens, 96 h, read-out: LC50 (mean), cases with high LC50, ALL samples, high-LC50 mode of bimodal distribution, 96 hours): 12000 nM | CC50 (primary human ALL cells; Homo sapiens, 96 h, read-out: LC50 (mean), cases with low LC50, ALL samples (352 children and adults), low-LC50 mode of bimodal distribution, 96 hours): 5.92 nM | CC50 (primary human ALL cells; Homo sapiens, read-out: LC50 (range), cases with high LC50, ALL samples, high-LC50 mode, 20000 nM is the assigned ceiling): 102 to 20000 nM | CC50 (primary human ALL cells; Homo sapiens, read-out: LC50, one T-ALL case with TCF7-SP1 fusion, 0.05 nM is the assigned floor value): ≤ 0.05 nM | CC50 (primary human ALL cells; Homo sapiens, read-out: LC50, two additional T-ALL cases with the same SPI1 fusion gene, ex vivo): 0.05 nM | dasatinib-sensitive T-ALL in adults (primary human ALL cells; adults with T-ALL, cutoff LC50 80 nM): 16.7% | dasatinib-sensitive T-ALL in children (primary human ALL cells; children with T-ALL, cutoff LC50 80 nM): 44.4% | CC50 (primary human ALL cells; human, 96 h): 0.05 to 79.4 nM | Cmax [1]: 60 to 120 nM

Cc1ccc(NC(=O)c2ccc(CN3CCN(C)CC3)cc2)cc1Nc1nccc(-c2cccnc2)n1 [imatinib]
response of dasatinib-sensitive primary T-ALL cases to other ABL inhibitors (primary human ALL cells): universally resistant

Cc1cn(-c2cc(NC(=O)c3ccc(C)c(Nc4nccc(-c5cccnc5)n4)c3)cc(C(F)(F)F)c2)cn1 [nilotinib]
response of dasatinib-sensitive primary T-ALL cases to other ABL inhibitors (primary human ALL cells): universally resistant

COC(=O)c1ccc2c(c1)NC(=O)/C2=C(\Nc1ccc(N(C)C(=O)CN2CCN(C)CC2)cc1)c1ccccc1 [nintedanib]
cytotoxicity in dasatinib-sensitive cases (primary human ALL cells): potent cytotoxicity | response of dasatinib-resistant T-ALL (primary human ALL cells): largely did not respond
